Tests used:
Test in all cases: NCI60 screening
Format in all cases: cell-based
786-0 = conditions: Homo sapiens, Renal Cancer panel
Text: (§1) With these findings, we submitted compound 8t to National Cancer Institute (NCI) to evaluate their antitumor efficacy against 60 human cancer cell lines.

A549/ATCC = conditions: Homo sapiens, Non-Small Cell Lung Cancer panel
Text: as §1

ACHN = conditions: Homo sapiens, Renal Cancer panel
Text: as §1

BT-549 = conditions: Homo sapiens, Breast Cancer panel
Text: as §1

CAKI-1 = conditions: Homo sapiens, Renal Cancer panel
Text: as §1

CCRF-CEM = conditions: Homo sapiens, Leukemia panel
Text: as §1

COLO 205 = conditions: Homo sapiens, Colon Cancer panel
Text: as §1

DU-145 = conditions: Homo sapiens, Prostate Cancer panel
Text: as §1

EKVX = conditions: Homo sapiens, Non-Small Cell Lung Cancer panel
Text: as §1

HCC-2998 = conditions: Homo sapiens, Colon Cancer panel
Text: as §1

HCT-116 = conditions: Homo sapiens, Colon Cancer panel
Text: as §1

HCT-15 = conditions: Homo sapiens, Colon Cancer panel
Text: as §1

HL-60(TB) = conditions: Homo sapiens, Leukemia panel
Text: as §1

HOP-62 = conditions: Homo sapiens, Non-Small Cell Lung Cancer panel
Text: as §1

HOP-92 = conditions: Homo sapiens, Non-Small Cell Lung Cancer panel
Text: as §1

HS 578T = conditions: Homo sapiens, Breast Cancer panel
Text: as §1

HT29 = conditions: Homo sapiens, HT-29; Colon Cancer panel
Text: as §1

IGROV1 = conditions: Homo sapiens, IGROV-1; Ovarian Cancer panel
Text: as §1

K-562 = conditions: Homo sapiens, K562; Leukemia panel
Text: as §1

KM12 = conditions: Homo sapiens, Colon Cancer panel
Text: as §1

LOX IMVI = conditions: Homo sapiens, Melanoma panel
Text: as §1

MALME-3M = conditions: Homo sapiens, Melanoma panel
Text: as §1

MCF7 = conditions: Homo sapiens, Breast Cancer panel
Text: as §1

MDA-MB-231 = conditions: Homo sapiens, Breast Cancer panel
Text: as §1

MDA-MB-468 = conditions: Homo sapiens, Breast Cancer panel
Text: as §1

MOLT-4 = conditions: Homo sapiens, Leukemia panel
Text: as §1

NCI-H226 = conditions: Homo sapiens, Non-Small Cell Lung Cancer panel
Text: as §1

NCI-H23 = conditions: Homo sapiens, Non-Small Cell Lung Cancer panel
Text: as §1

NCI-H322M = conditions: Homo sapiens, Non-Small Cell Lung Cancer panel
Text: as §1

NCI-H460 = conditions: Homo sapiens, Non-Small Cell Lung Cancer panel
Text: as §1

NCI-H522 = conditions: Homo sapiens, Non-Small Cell Lung Cancer panel
Text: as §1

NCI/ADR-RES = conditions: Homo sapiens, Ovarian Cancer panel
Text: as §1

OVCAR-3 = conditions: Homo sapiens, Ovarian Cancer panel
Text: as §1

OVCAR-4 = conditions: Homo sapiens, Ovarian Cancer panel
Text: as §1

OVCAR-5 = conditions: Homo sapiens, Ovarian Cancer panel
Text: as §1

OVCAR-8 = conditions: Homo sapiens, Ovarian Cancer panel
Text: as §1

PC-3 = conditions: Homo sapiens, Prostate Cancer panel
Text: as §1

RPMI-8226 = conditions: Homo sapiens, Leukemia panel
Text: as §1

RXF 393 = conditions: Homo sapiens, Renal Cancer panel
Text: as §1

SF-268 = conditions: Homo sapiens, CNS Cancer panel
Text: as §1

SF-295 = conditions: Homo sapiens, CNS Cancer panel
Text: as §1

SF-539 = conditions: Homo sapiens, CNS Cancer panel
Text: as §1

SK-MEL-28 = conditions: Homo sapiens, Melanoma panel
Text: as §1

SK-MEL-2 = conditions: Homo sapiens, Melanoma panel
Text: as §1

SK-MEL-5 = conditions: Homo sapiens, Melanoma panel
Text: as §1

SK-OV-3 = conditions: Homo sapiens, Ovarian Cancer panel
Text: as §1

SN12C = conditions: Homo sapiens, Renal Cancer panel
Text: as §1

SNB-19 = conditions: Homo sapiens, CNS Cancer panel
Text: as §1

SNB-75 = conditions: Homo sapiens, CNS Cancer panel
Text: as §1

SR = conditions: Homo sapiens, Leukemia panel
Text: as §1

SW-620 = conditions: Homo sapiens, Colon Cancer panel
Text: as §1

T-47D = conditions: Homo sapiens, T47D; Breast Cancer panel
Text: as §1

TK-10 = conditions: Homo sapiens, Renal Cancer panel
Text: as §1

U251 = conditions: Homo sapiens, U-251; CNS Cancer panel
Text: as §1

UACC-257 = conditions: Homo sapiens, Melanoma panel
Text: as §1

UO-31 = conditions: Homo sapiens, Renal Cancer panel
Text: as §1

Work on `O=C(Nc1ccc(N2CCNCC2)cc1)c1n[nH]cc1Nc1ncnc2sc3c(c12)CCC3` [Compound 8t] yielded a GI50 (786-0) of 360 nM, a GI50 (A549/ATCC) of 140 nM and a GI50 (ACHN) of 160 nM. The GI50 (BT-549) was 1020 nM, the GI50 (CAKI-1) was 80 nM and the GI50 (CCRF-CEM) was 220 nM. It also gave a GI50 (COLO 205) of 120 nM, a GI50 (DU-145) of 300 nM and a GI50 (EKVX) of 60 nM. For the same compound, the GI50 (HCC-2998) was 1200 nM, the GI50 (HCT-116) was 110 nM and the GI50 (HCT-15) was 220 nM. The GI50 (HL-60(TB)) was 1150 nM, the GI50 (HOP-62) was 370 nM and the GI50 (HOP-92) was 40 nM. It also gave a GI50 (HS 578T) of 100 nM, a GI50 (HT29) of 260 nM and a GI50 (IGROV1) of 120 nM. The GI50 (K-562) was 120 nM, the GI50 (KM12) was 170 nM and the GI50 (LOX IMVI) was 200 nM. For the same compound, the GI50 (MALME-3M) was 240 nM, the GI50 (MCF7) was 160 nM and the GI50 (MDA-MB-231) was 1930 nM. The GI50 (MDA-MB-468) was 420 nM, the GI50 (MOLT-4) was 80 nM and the GI50 (NCI-H226) was 320 nM. The GI50 (NCI-H23) was 260 nM, the GI50 (NCI-H322M) was 140 nM and the GI50 (NCI-H460) was 60 nM. The GI50 (NCI-H522) was 210 nM, the GI50 (NCI/ADR-RES) was 1480 nM and the GI50 (OVCAR-3) was 230 nM. The GI50 (OVCAR-4) was 220 nM, the GI50 (OVCAR-5) was 270 nM and the GI50 (OVCAR-8) was 360 nM. It also gave a GI50 (PC-3) of 180 nM, a GI50 (RPMI-8226) of 890 nM and a GI50 (RXF 393) of 390 nM. For the same compound, the GI50 (SF-268) was 720 nM, the GI50 (SF-295) was 270 nM and the GI50 (SF-539) was 390 nM. It also gave a GI50 (SK-MEL-28) of 1130 nM, a GI50 (SK-MEL-2) of 1160 nM and a GI50 (SK-MEL-5) of 250 nM. The GI50 (SK-OV-3) was 260 nM, the GI50 (SN12C) was 450 nM and the GI50 (SNB-19) was 240 nM. The GI50 (SNB-75) was 50 nM, the GI50 (SR) was 60 nM and the GI50 (SW-620) was 120 nM. The GI50 (T-47D) was 590 nM, the GI50 (TK-10) was 470 nM and the GI50 (U251) was 110 nM. It also gave a GI50 (UACC-257) of 480 nM and a GI50 (UO-31) of 400 nM.
